Results on 1 compound are retold here after patent US20250241974A1, “COMPOSITIONS AND METHODS FOR WOUND HEALING” (University of Maine System Board of Trustees, priority 2024, published 2025).

The assay deals with excision wounds. The experiment in a line: Wound healing assay with CNF hydrogel formulation (Example IV). It counts as in vivo. Conditions: citric acid as cross-linking agent.

As to `O=C(O)CC(O)(CC(=O)O)C(=O)O` [citric acid], the “effect on all parameters studied” value is reported as “does not have any effect”.
